Laboratory results reported in paper PMC5428017, “Targeting to the non-genomic activity of retinoic acid receptor-gamma by acacetin in hepatocellular carcinoma” (Scientific Reports, 2017).
Residue numbers refer to the chain shown, from its start.

What was measured:
[1] = target: T1, retinoic acid receptor-γ (RARγ) (Homo sapiens, UniProt P13631); test: competitive radioligand displacement of [3H]atRA from purified RARγ LBD; supported by GFP-RARγ fluorescence quenching in cells and reporter antagonism; format: binding
T1 construct: gene RARG; RARγ LBD
T1 sequence (P13631 185-419 limits assumed): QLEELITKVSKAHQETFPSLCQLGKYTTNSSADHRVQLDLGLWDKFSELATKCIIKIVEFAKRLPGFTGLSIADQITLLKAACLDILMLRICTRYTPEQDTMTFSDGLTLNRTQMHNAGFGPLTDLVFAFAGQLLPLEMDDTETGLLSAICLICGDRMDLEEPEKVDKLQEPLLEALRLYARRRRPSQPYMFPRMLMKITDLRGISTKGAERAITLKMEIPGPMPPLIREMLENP

RARβ = target: T2, RARβ (Homo sapiens, UniProt P10826); test: competitive radioligand displacement of [3H]atRA from RARβ LBD; format: binding
T2 construct: gene RARB; RARβ LBD
T2 sequence (P10826 183-417 limits assumed): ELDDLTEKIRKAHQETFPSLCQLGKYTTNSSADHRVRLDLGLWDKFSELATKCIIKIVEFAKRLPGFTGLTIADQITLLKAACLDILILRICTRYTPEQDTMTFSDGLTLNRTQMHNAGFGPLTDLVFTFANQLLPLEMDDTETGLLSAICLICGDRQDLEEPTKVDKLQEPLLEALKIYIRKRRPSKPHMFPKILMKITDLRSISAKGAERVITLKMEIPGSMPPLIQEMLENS

RARα = target: T3, RARα (Homo sapiens, UniProt P10276); test: competitive radioligand displacement of [3H]atRA from RARα LBD; format: binding
T3 construct: gene RARA; RARα LBD
T3 sequence (P10276 183-417 limits assumed): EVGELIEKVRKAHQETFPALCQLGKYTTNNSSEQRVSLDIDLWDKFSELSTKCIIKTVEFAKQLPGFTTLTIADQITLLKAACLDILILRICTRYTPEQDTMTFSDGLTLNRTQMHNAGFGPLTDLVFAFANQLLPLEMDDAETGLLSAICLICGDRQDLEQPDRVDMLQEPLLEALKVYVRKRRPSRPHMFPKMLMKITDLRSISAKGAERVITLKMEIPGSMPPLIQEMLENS

[2] = target: T4, retinoic acid receptor-γ (RARγ) (Homo sapiens, UniProt P13631, R278A); test: Gal4-RARγ luciferase reporter in HEK293T cells, […] atRA; format: cell-based; conditions: 0.1 µM
T4 construct: gene RARG; Gal4-RARγ/R278A
T4 sequence (P13631 185-419 R278A limits assumed): T1 sequence (P13631 185-419 limits assumed) with R94A

IC50 [1] [µM] | SMILES | competitive radioligand displacement of [3H]atRA from RARβ LBD (RARβ) | competitive radioligand displacement of [3H]atRA from RARα LBD (RARα) | Gal4-RARγ luciferase reporter in HEK293T cells, 10^-7 M atRA [2] [fold activation]
12.8 | COc1ccc(-c2cc(=O)c3c(O)cc(O)cc3o2)cc1 [acacetin, 5,7-dihydroxy-4′-methoxyflavone] | – | – | –
– | CC1=C(/C=C/C(C)=C/C=C/C(C)=C/C(=O)O)C(C)(C)CCC1 [atRA] | both [^3H]atRA-bound complexes could be displaced by unlabeled atRA but not by acacetin | both [^3H]atRA-bound complexes could be displaced by unlabeled atRA but not by acacetin | 22
